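All cell lines were grown in 96-well plates and treated with compound for 48 hours. Abbreviation: GI50, concentration required for 50% inhibition of growth.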 Activity calls are given as the source filed them. No stated cut-off is given here; in the data, active = GI50 up to about 1.1 µM and inactive = higher. Non-standard residues stand in square brackets, D forms with d. Residues, ends and D or L forms follow the SMILES beside them. ξ: configuration not given here. *: point of attachment. NMeY = CN[C@@H](Cc1ccc(O)cc1)C(=O)O; Cbz = O=C(OCc1ccccc1)*; ξA = CC(N)C(=O)O
How the values were obtained:
Assay in all cases: inhibition of tumour cell growth, NCI panel, 48 h
[1] = test system: A549
[2] = test system: OVCAR-8
[3] = test system: SW-620
[4] = test system: DMS-114
[5] = test system: UACC-257
[6] = test system: NCI-H23
[7] = test system: KM12
[8] = test system: ACHN
[9] = test system: COLO 205
[10] = test system: OVCAR-4
[11] = test system: M14
[12] = test system: SF-539
[13] = test system: HOP-62
[14] = test system: SNB-75
[15] = test system: NCI-H226
[16] = test system: K562
[17] = test system: DU-145
[18] = test system: MDA-N
[19] = test system: BT-549
[20] = test system: MDA-MB-435

Measured: GI50

CCCCCCCCCCCCCCCC(=O)NCC(OCC)OCC
inactive: [1] > 100 µM | [2] > 100 µM | [3] > 100 µM | [4] > 100 µM | [5] > 100 µM | [6] > 100 µM | [7] > 100 µM | [8] > 100 µM | [9] > 100 µM | [10] > 100 µM | [11] > 100 µM | [12] > 100 µM | [13] > 100 µM | [14] > 100 µM | [15] > 100 µM

CC(=O)OC(C)(C)/C=C/C(=O)[C@](C)(O)[C@H]1[C@H](O)C[C@@]2(C)[C@@H]3CC=C4[C@@H](C[C@H](O)[C@H](O)C4(C)C)[C@]3(C)C(=O)C[C@]12C
active: [1] 0.822 µM | [2] 0.33 µM | [3] 0.274 µM | [4] 0.324 µM | [5] 0.638 µM | [6] 0.324 µM | [7] 0.467 µM | [8] 0.498 µM | [9] 0.31 µM | [10] 0.331 µM | [11] 0.442 µM | [12] 0.303 µM | [14] 0.261 µM | [16] 0.272 µM | [15] 0.984 µM
inactive: [13] 1.51 µM

CC(C)(C)N/N=C(\C(=O)Nc1nnc(S)[nH]1)C1C(=O)Nc2ccccc2[S+]1[O-] (stereo not drawn)
inactive: [1] > 100 µM | [2] > 100 µM | [3] > 100 µM | [4] > 100 µM | [5] > 100 µM | [6] > 100 µM | [7] > 100 µM | [8] > 100 µM | [9] > 100 µM | [10] > 100 µM | [11] > 100 µM | [12] > 100 µM | [13] > 100 µM | [14] > 100 µM | [16] > 100 µM | [15] > 100 µM

N#C/N=C1\NC(Cc2ccccc2)C(=O)N1CCc1c[nH]c2ccccc12 (stereo not drawn)
inactive: [1] 27 µM | [2] 37.4 µM | [3] 34.9 µM | [4] 29.3 µM | [5] 43.6 µM | [6] 35.7 µM | [7] 29.4 µM | [9] 19.7 µM | [10] 25.5 µM | [11] 35.1 µM | [12] 29.6 µM | [13] 28.1 µM | [14] 8.87 µM | [16] 23.9 µM | [15] 37.1 µM

CCOC(=O)c1nn2c(nc1=O)sc1ccc3ccccc3c12
inactive: [1] > 100 µM | [2] > 100 µM | [3] > 100 µM | [4] > 100 µM | [5] > 100 µM | [6] > 100 µM | [7] > 100 µM | [8] > 100 µM | [9] > 100 µM | [10] > 100 µM | [11] > 100 µM | [12] > 100 µM | [13] > 100 µM | [14] > 100 µM | [16] > 100 µM | [15] > 100 µM

O=C(NC(=O)c1cc2cc(Br)cc(Br)c2oc1=O)Oc1ccccc1
inactive: [1] > 100 µM | [2] 46.5 µM | [3] > 100 µM | [4] 65.2 µM | [5] 59.2 µM | [6] > 100 µM | [7] 93.8 µM | [8] 21.7 µM | [9] > 100 µM | [10] > 100 µM | [11] > 100 µM | [12] 87.3 µM | [13] 43.7 µM | [14] 13.7 µM | [16] > 100 µM | [15] 78.2 µM

[O-][S+]1C(=c2ccc(=C3Sc4ccccc4S3)cc2)Sc2ccccc21 (stereo not drawn)
inactive: [1] 17.6 µM | [2] 17.9 µM | [3] > 100 µM | [4] 20.8 µM | [5] > 92.5 µM | [6] 16.3 µM | [7] 17.4 µM | [8] 19.5 µM | [9] > 100 µM | [10] 46.8 µM | [11] 15.1 µM | [12] 15.6 µM | [13] 17.7 µM | [14] 19.1 µM | [16] > 66.7 µM | [15] 19.2 µM

COC(=O)[C@H]1COC(=S)N1C(=O)[C@@H](C)[C@H](O)C(C)C
inactive: [1] > 100 µM | [2] > 100 µM | [3] > 100 µM | [4] 84.7 µM | [5] > 100 µM | [6] > 100 µM | [7] > 100 µM | [8] > 100 µM | [9] > 100 µM | [10] > 100 µM | [11] > 100 µM | [12] > 100 µM | [13] > 100 µM | [14] 42 µM | [16] > 100 µM | [15] 12.8 µM

O=C(CCc1nnc(S)[nH]1)Nc1cc(Cl)ccc1Cl
inactive: [1] > 100 µM | [2] > 100 µM | [3] > 100 µM | [4] > 100 µM | [5] > 100 µM | [6] > 100 µM | [7] > 100 µM | [8] > 100 µM | [9] > 100 µM | [10] > 100 µM | [11] > 100 µM | [12] > 100 µM | [13] > 100 µM | [14] 37.9 µM | [16] > 100 µM | [15] > 100 µM

COC(=O)C(C(=O)C(=O)Nc1ccc(N)cc1[N+](=O)[O-])c1nc2ccc(Cl)cc2nc1O (stereo not drawn)
inactive: [1] > 100 µM | [2] > 100 µM | [3] > 100 µM | [4] > 100 µM | [5] > 100 µM | [6] > 100 µM | [7] > 100 µM | [8] > 100 µM | [9] > 100 µM | [10] > 100 µM | [11] > 100 µM | [12] > 100 µM | [13] > 100 µM | [14] 32.4 µM | [16] > 100 µM | [15] 63 µM

O=C(CC1Sc2ccccc2NC1=O)Nc1cc(Cl)ccc1Cl (stereo not drawn)
inactive: [1] > 100 µM | [2] > 100 µM | [3] > 100 µM | [4] > 100 µM | [5] > 100 µM | [6] > 100 µM | [8] > 100 µM | [10] > 100 µM | [11] > 100 µM | [12] 92.3 µM | [14] 33.4 µM | [16] > 100 µM | [15] > 100 µM

COC(=O)C(c1n[nH]c2ccccc12)C(C(=O)OC)c1n[nH]c2ccccc12 (stereo not drawn)
inactive: [1] > 100 µM | [2] 24.8 µM | [3] 18.3 µM | [4] 29.4 µM | [5] 54.7 µM | [6] 30.9 µM | [7] > 100 µM | [8] 49.4 µM | [10] 18.8 µM | [11] 32.1 µM | [12] 17 µM | [13] > 100 µM | [14] 50.1 µM | [16] 28 µM | [15] > 100 µM

Nc1ccc(C(c2ccccc2)(c2ccccc2)c2ccccc2)cc1
inactive: [1] > 100 µM | [2] 33.9 µM | [3] > 100 µM | [4] 64 µM | [5] 34.3 µM | [6] 30.1 µM | [7] 55.6 µM | [8] 52.5 µM | [9] > 100 µM | [10] 24.7 µM | [11] 15.8 µM | [12] 37 µM | [13] 27.9 µM | [14] 13.5 µM | [16] 70.6 µM

O=C1c2ccccc2-c2ccccc2C(=O)C1(Br)Br
inactive: [1] 17.7 µM | [2] 11 µM | [3] 3.8 µM | [4] 15.2 µM | [5] 10.7 µM | [6] 13.4 µM | [7] 17.7 µM | [8] 11.7 µM | [9] 8.24 µM | [10] 13.7 µM | [11] 5.33 µM | [12] 9.51 µM | [13] 18.2 µM | [14] 12.9 µM | [16] 4.13 µM | [15] 17.7 µM

COc1cc(C2c3cc4c(cc3[C@H](NC(=O)c3cccs3)C3COC(=O)[C@H]23)OCO4)cc(OC)c1OC (stereo partly drawn)
active: [17] < 0.01 µM | [1] < 0.019 µM | [18] < 0.01 µM | [2] < 0.01 µM | [3] < 0.016 µM | [4] 0.0113 µM | [6] < 0.0143 µM | [7] < 0.01 µM | [8] < 0.0174 µM | [9] 0.0109 µM | [11] < 0.0197 µM | [12] < 0.01 µM | [19] < 0.01 µM | [13] < 0.0144 µM | [14] < 0.0152 µM | [16] < 0.0156 µM | [15] 0.668 µM

COc1ccc2c(c1)CN1CCc3c(cc(OC)c(OC)c3OC)C1C2 (stereo not drawn)
inactive: [1] > 100 µM | [2] > 100 µM | [3] > 100 µM | [4] 58.5 µM | [5] > 100 µM | [6] > 100 µM | [8] > 100 µM | [9] > 100 µM | [10] > 100 µM | [11] 87.1 µM | [12] > 100 µM | [13] > 100 µM | [14] > 100 µM | [16] 57.5 µM | [15] > 100 µM

COc1ccc(C[C@@H](C(=O)NCC(N)=O)N(C)C(=O)[C@@H]2CCCN2C(=O)[C@H](CC(C)C)NC(=O)C(C)NC(=O)OCc2ccccc2)cc1 (stereo partly drawn) (Cbz-[ξA]LP[NMeY](Me)G-NH2)
inactive: [17] > 100 µM | [1] > 100 µM | [18] > 100 µM | [2] > 100 µM | [3] > 100 µM | [5] > 100 µM | [6] > 100 µM | [7] > 100 µM | [8] > 100 µM | [9] > 100 µM | [20] > 100 µM | [10] > 100 µM | [11] > 100 µM | [12] > 100 µM | [19] > 100 µM | [13] > 100 µM | [14] > 100 µM | [16] > 100 µM | [15] > 100 µM

Source: ChEMBL document CHEMBL1201862, “PubChem BioAssay data set” (2004)
